From US11306124B2, “Agonist agents of CD47 inducing programmed cell death and their use in the treatments of diseases associated with defects in programmed cell death” (SORBONNE UNIVERSITE, priority 2016, dated 2022)
Residues, ends and D or L forms follow the SMILES beside them.

What was measured:
[1] = tested on: Trypsin, Chymotrypsin and Proteinase K; assay: Proteolytic stability (incubation with proteases or in Human Serum); assay type: in vitro ADME
Method: Proteolytic stability studies were performed by peptides incubation with proteases (such as Trypsin, Chymotrypsin and Proteinase K) or in Human Serum as described earlier (See Karoyan et al. J. Med. Chem. 2016).

CD47 = biological target: T1, CD47 (Homo sapiens, UniProt Q08722); assay: Binding affinity by Microscale Thermophoresis on labeled Jurkat and/or MEC-1 cell membrane preparation
T1 construct: MEC-1 or Jurkat membrane preparation is labeled using the Nanotemper NT-647 labeling kit; endogenous in cells; host or cells: Jurkat and/or MEC-1 cell membrane preparation
Text: FIG. 5 and FIG. 6. Binding curve measured by MST. The measurement method is based on the directed movement of molecules along a temperature gradient, an effect termed “thermophoresis”. A local temperature difference ΔT leads to a local change in molecule concentration (depletion or enrichment), quantified by the Soret coefficient ST: chot/ccold=exp(−STΔT). Jurkat or Mec-1 cell membrane preparations are labeled using the Nanotemper NT-647 labeling kit as described elsewhere.xliv The labeled preparation is eluted with PBS and stored at 4° C. A stock solution of each peptide is prepared in DMSO (5 mM) and then diluted with PBS. For the peptides evaluated by MST, we have kept the concentration of the NT.115-labeled membrane constant, while the concentration of the ligand (peptide) was varied. […]
Binding affinity measurements. The binding affinities of peptides, here PKT16, PKTD1, PKTD10, PKTD10-1, PKTD10-3, PKTD10-5, PKDT10-7 and PKTD10-8 for a membrane preparation from Jurkat and/or MEC-1 cells were measured by Microscale Thermophoresis^xlv on a Monolith NT115-pico system (Nanotemper Technologies, Munich, Germany).
Binding curve measured by MST. […] A local temperature difference ΔT leads to a local change in molecule concentration (depletion or enrichment), quantified by the Soret coefficient ST: chot/ccold=exp(−STΔT). […]

[2] = tested on: B-chronic lymphocytic leukemia (CLL) primary cells; conditions: cited from earlier work; for induction of caspase-independent PCD: soluble peptide, CLL primary cells

T1 sequence (Q08722 19-323): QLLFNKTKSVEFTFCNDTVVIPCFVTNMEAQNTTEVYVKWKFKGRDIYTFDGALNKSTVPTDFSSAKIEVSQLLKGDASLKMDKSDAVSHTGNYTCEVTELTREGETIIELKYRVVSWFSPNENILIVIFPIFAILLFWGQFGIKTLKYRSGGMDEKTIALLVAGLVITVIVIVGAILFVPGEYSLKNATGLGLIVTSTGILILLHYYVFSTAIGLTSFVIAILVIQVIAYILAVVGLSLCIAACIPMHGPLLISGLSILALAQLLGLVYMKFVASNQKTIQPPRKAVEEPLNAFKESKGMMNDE

Compound	stability toward proteases [1]	induction of caspase-independent PCD [2]	further results
CSCC[C@@H]1NC(=O)[C@H](C(C)C)NC(=O)[C@H](C(C)C)NC(=O)[C@H](Cc2ccc(O)cc2)NC(=O)[C@H](Cc2ccccc2)NC(=O)[C@H](C(C)C)NC(=O)[C@H](C(C)C)NC(=O)[C@H](CCCCN)NC(=O)[C@H](C(C)C)NC(=O)[C@H](CO)NC(=O)[C@H](CC(C)C)NC(=O)[C@@H]2CCCN2C(=O)[C@H]2CCCN2C(=O)[C@H](Cc2c[nH]c3ccccc23)NC1=O [PKD8, —F—Y—V—V—M—W—p—P—L—S—V—K—V—V—] (HELM PEPTIDE1{L.S.V.K.V.V.F.Y.V.V.M.W.[dP].P}$PEPTIDE1,PEPTIDE1,1:R1-14:R2$$$V2.0)	fully stable		
CCCC[C@@H]1NC(=O)[C@H](C(C)C)NC(=O)[C@H](C(C)C)NC(=O)[C@H](Cc2ccc(O)cc2)NC(=O)[C@H](Cc2ccccc2)NC(=O)[C@H](C(C)C)NC(=O)[C@H](C(C)C)NC(=O)[C@H](CCCCN)NC(=O)[C@H](C(C)C)NC(=O)[C@H](CO)NC(=O)[C@H](CC(C)C)NC(=O)[C@@H]2CCCN2C(=O)[C@H]2CCCN2C(=O)[C@H](Cc2c[nH]c3ccccc23)NC1=O [PKD9, —F—Y—V—V—X—W—p—P—L—S—V—K—V—V— X = NLe] (HELM PEPTIDE1{L.S.V.K.V.V.F.Y.V.V.[Nle].W.[dP].P}$PEPTIDE1,PEPTIDE1,1:R1-14:R2$$$V2.0)	fully stable		
CC(C)C[C@@H]1NC(=O)[C@@H]2CCCN2C(=O)[C@H]2CCCN2C(=O)[C@H](Cc2c[nH]c3ccccc23)NC(=O)[C@H](CCCCN)NC(=O)[C@H](C(C)C)NC(=O)[C@H](C(C)C)NC(=O)[C@H](Cc2ccc(O)cc2)NC(=O)[C@H](Cc2ccccc2)NC(=O)[C@H](C(C)C)NC(=O)[C@H](C(C)C)NC(=O)[C@H](CCCCN)NC(=O)[C@H](C(C)C)NC(=O)[C@H](CO)NC1=O [PKD10, —F—Y—V—V—K—W—p—P—L—S—V—K—V—V—] (HELM PEPTIDE1{L.S.V.K.V.V.F.Y.V.V.K.W.[dP].P}$PEPTIDE1,PEPTIDE1,1:R1-14:R2$$$V2.0)	fully stable		
CCCC[C@H](NC(=O)[C@@H](NC(=O)[C@@H](NC(=O)[C@H](Cc1ccc(O)cc1)NC(=O)[C@H](Cc1ccccc1)NC(=O)[C@H](CCCNC(=N)N)N(C)C(=O)[C@H](N)CCCCN)C(C)C)C(C)C)C(=O)N[C@@H](Cc1c[nH]c2ccccc12)C(=O)N[C@@H](CCCCN)C(=O)N[C@H](CCCCN)C(=O)O [PKT16, (D)Lys-(N-Me)Arg-Phe-Tyr-Val-Val-Nle-Trp-Lys-(D)Lys] (HELM PEPTIDE1{[dK].[meR].F.Y.V.V.[Nle].W.K.[dK]}$$$$V2.0; N-terminus and C-terminus assumed)			binding affinities (Kd), order of magnitude in words (CD47): micromolar range
K-RFYVVMWK-K (KRFYVVMWKK; listed as Homo sapiens) [Peptide 4N1K, soluble decapeptide that mimics the C-terminal domain of TSP-1]		induces caspase-independent PCD	selective elimination of leukemic B-cells versus healthy B-lymphocytes or resting normal B-cells from CLL patients ([2]; CD47 ligation): specifically eliminates leukemic B-cells
KRFYGGMWKK [Peptide 4NGG, linear negative control peptide, 4N1K mutated in two amino acids]		unable to induce PCD	
